{"source": "a melting point compilation (Tetko et al.; mined from patent text by program, amines drawn as free bases though some values may be those of a salt)", "data": [{"units": {"melting point": "°C"}, "values": [{"smiles": "O=S(=O)(Nc1ccccc1CO)C(F)(F)F", "melting point": "60 to 61"}, {"smiles": "CC(C)CC(NC(=O)C(Cc1ccccc1)NC(=O)C1CCCCC1CS)C(=O)O", "note": "(configuration not stated)", "melting point": "156 to 158"}, {"smiles": "COC(=O)Nc1ccc(C(=O)O)cc1", "melting point": "195 to 196"}, {"smiles": "CCOC(=O)/C=C/c1ccc(NC(=O)c2csc(NC(=O)NCc3ccccc3)n2)cc1", "melting point": 207}, {"smiles": "Cc1cc2cnnc(Cl)c2n1Cc1ccccc1", "melting point": "152 to 156"}, {"smiles": "CC(=O)NCCCn1cc(C2=C(c3cn(C)c4ccccc34)C(=O)NC2=O)c2ccccc21", "melting point": "132 to 136"}, {"smiles": "COc1nc(NCCNC(C)C)nc(OC)c1[N+](=O)[O-]", "melting point": 135}, {"smiles": "C=C1C[C@@H](C(=O)O)[C@H](C(=O)O)C1", "note": "(relative stereo)", "melting point": "178 to 179"}, {"smiles": "CCn1cc(CN(C(=O)C2CCc3cc(OC)ccc32)c2ccc(C(C)C)cc2)cn1", "note": "(configuration not stated)", "melting point": "115 to 116"}, {"smiles": "COc1cc([N+](=O)[O-])ccc1-c1ccc(-c2ccc([N+](=O)[O-])cc2OC)o1", "melting point": "308 to 310"}, {"smiles": "c1ccc(OCCSCc2nnc(-c3ccc(OCc4ccncc4)cc3)o2)cc1", "melting point": "80 to 90"}, {"smiles": "COc1ccnc(CSc2nc3cc(C(F)(F)F)ccc3[nH]2)c1C", "melting point": 148}, {"smiles": "Cc1cccc(Nc2cc(Nc3ccc(OCCCN(C)C)cc3)ncn2)c1", "melting point": "204 to 207"}, {"smiles": "O=C(NCC1Cc2cc(Cl)c3c(c2O1)CCC3)OCc1ccccc1", "note": "(configuration not stated)", "melting point": "118 to 121"}, {"smiles": "CC(C)(C)OC(=O)NC[C@H]1CN(c2ccc3c(c2)CCCc2cn[nH]c2-3)C(=O)O1", "melting point": "85 to 100"}, {"smiles": "COc1ccc2cc(-c3ccc(OCCN4CCCC4)cc3)sc2c1", "melting point": "151 to 154"}, {"smiles": "CCc1ccc(-c2ccc3c(c2)C=C(C(=O)Nc2ccc(CN(C)C4CCOCC4)cc2)CCN3C)cc1CC", "melting point": "127 to 129"}, {"smiles": "CS(=O)(=O)Nc1nc2nc(NC3CCOCC3)ncc2cc1Oc1ccc(F)cc1F", "melting point": "199 to 204"}, {"smiles": "CC(C)c1ccc(C2(OC(=O)C(C)(C)C)C(=O)c3ccccc3C2=O)c(OC(=O)C(C)(C)C)c1", "melting point": "121 to 124"}, {"smiles": "CCOC(=O)c1sc(Br)c(Br)c1Cl", "melting point": "58 to 63"}, {"smiles": "Cc1cc(S(F)(F)(F)(F)F)c(S(C)(=O)=O)cc1C(=O)NC(=N)N", "melting point": "254 to 256"}, {"smiles": "COc1ccc(Cl)c(Oc2c(CCl)nc(N3CCOCC3)nc2NS(=O)(=O)c2ccc(C(C)C)cn2)c1", "melting point": 205}, {"smiles": "CCCC1(S(=O)(=O)CCCN2CCC(N3Cc4ccccc4C3=O)CC2)c2ccccc2-c2ccccc21", "melting point": "83 to 86"}, {"smiles": "N#CNC(=NC1CCN(CCCc2ccccc2)CC1)N1CCc2ccccc2C1", "melting point": "122 to 124"}, {"smiles": "CC(=O)NC1=C(C#N)C(c2cccc([N+](=O)[O-])c2)c2ccc3ccccc3c2O1", "note": "(configuration not stated)", "melting point": "234 to 236"}, {"smiles": "O=C1COc2c(cc(Cl)cc2C(=O)NC2CCN(CCc3ccccc3)CC2)N1", "melting point": "233 to 235"}, {"smiles": "CCOC(=O)c1nn(Cc2cn(C(c3ccccc3)(c3ccccc3)c3ccccc3)cn2)c2cc(OC)c(OC)cc12", "melting point": "184 to 186"}, {"smiles": "CCn1c(-c2ccccc2)c(C2=CCC(C(=O)O)(C(=O)O)CC2)c2ccccc21", "melting point": "111 to 112"}, {"smiles": "C=C(c1cc(F)ccc1OCc1ccc(-c2ccccc2)cc1)n1ccnc1", "melting point": "97 to 98"}, {"smiles": "CNC(=O)c1cc2c(Oc3ccc(Cl)c(F)c3)cncc2s1", "melting point": "62 to 64"}, {"smiles": "Cc1nc2ccc(N(C)C)nn2c1S(N)(=O)=O", "melting point": 227}, {"smiles": "CC1(C)OCC(COS(=O)(=O)c2ccc([N+](=O)[O-])cc2)O1", "note": "(configuration not stated)", "melting point": "92 to 94"}, {"smiles": "CCOC(=O)CCCCCOc1cc2c(c(Cl)c1Cl)C(=O)C(C)(C1CCCC1)C2", "note": "(configuration not stated)", "melting point": "69 to 72"}, {"smiles": "O=C(O)c1cc(Cl)c(-n2ccc(C(F)(F)F)cc2=O)c(Cl)c1", "melting point": "259 to 260"}, {"smiles": "CC(C)(C=C(Cl)Cl)C(=O)Nc1ccc(Cl)cc1", "melting point": "131 to 134"}, {"smiles": "C=CCn1c(=O)c2cnc(-n3ccnc3)nc2n(C(C)C)c1=O", "melting point": "158 to 160"}, {"smiles": "CCc1cn(C2OC(CNC(=O)C(C)Oc3c(Cl)cc(Cl)c(OC)c3Cl)C(OC(=O)C(NC(=O)OC(C)(C)C)C(C)C)C2F)c(=O)[nH]c1=O", "note": "(configuration not stated)", "melting point": "147 to 149"}, {"smiles": "COc1cccc(CN2CCN(C(=S)SC)CC2)c1OC", "melting point": "110 to 111"}, {"smiles": "O=C1c2c(O)ccc(O)c2C(=O)c2c(NCCN3CCCC3CO)ccc(NCCN3CCCC3CO)c21", "note": "(configuration not stated)", "melting point": "202 to 204"}, {"smiles": "[N-]=[N+]=NCc1cccc(C(=O)c2ccc(Cl)cc2)c1", "melting point": "43 to 45"}, {"smiles": "Nc1c(-c2ccc(C(F)(F)F)cc2F)nnn1-c1ccc(O)cc1", "melting point": "176 to 178"}, {"smiles": "COC(=O)c1cc(C(=O)c2c(C)c(OC)c3c(OCc4ccccc4)cccn23)ccc1N", "melting point": 174}, {"smiles": "COc1ccc(CCNc2nc(Cl)nc(NCCc3ccc(OC)c(OC)c3)n2)cc1OC", "melting point": 186}, {"smiles": "O=C(NN=c1[nH]nc(Cl)c2ccccc12)c1ccccc1", "melting point": 162}, {"smiles": "C[C@H]1[C@H](O)[C@H](O)C(S(=O)(=O)c2ccccc2)=C[C@H](C)[C@H]1O", "melting point": "143 to 145"}, {"smiles": "OCCc1ccccc1Nc1ncc2c(n1)-c1ccccc1[C@H](c1ccccc1F)C2", "melting point": "162 to 163"}, {"smiles": "CC(C)N1CC(C(=O)c2ccc(Cc3ccc(F)cc3)o2)=C(O)C1=O", "melting point": "155 to 157"}, {"smiles": "CC(C)(C)OC(=O)Nc1ccc2nc(-c3cccnc3)nn2c1", "melting point": 296}, {"smiles": "Cn1c2c(c3cccc(C#N)c31)C(=O)NCC2", "melting point": "230 to 231"}, {"smiles": "Cc1oc2cc(O)ccc2c(=O)c1C#N", "melting point": "> 300"}, {"smiles": "COc1ccc(-c2ccc(C(=O)O)cc2)c2c1OC(C)(C)C2", "melting point": "249 to 252"}, {"smiles": "CCOC(=O)Cc1csc(NC(=O)C(CC2CCCC2)c2ccc(NC(=O)c3cccnc3)cc2)n1", "note": "(configuration not stated)", "melting point": "195 to 200"}, {"smiles": "CC(C)(SN=O)C1COC(=O)N1", "note": "(configuration not stated)", "melting point": 65}, {"smiles": "Cc1nnc2n1-c1sc(CCc3ccc(Cl)cc3)cc1C(c1ccccc1Cl)=NC2", "melting point": "162 to 164"}, {"smiles": "COC(=O)CCCCCCCCCCCCCCCCCCCN1C(=O)c2ccccc2C1=O", "melting point": "86.5 to 87.5"}, {"smiles": "Cn1c(=O)cc(-c2ccccc2)c2cc(C(COCc3ccc(Cl)cc3)(c3ccc(Cl)cc3)n3ccnc3)ccc21", "note": "(configuration not stated)", "melting point": 177}, {"smiles": "COc1cc2c(cc1OC)C(=O)C(C#N)C2", "note": "(configuration not stated)", "melting point": "177 to 179"}, {"smiles": "N#Cc1c(-c2ccc(N)cc2)cc(-c2ccccc2O)nc1NC(=O)c1cccs1", "melting point": "292 to 293"}, {"smiles": "COc1cc(C(C)C)c2c(c1)S(=O)(=O)N(COc1cc(=O)n3c(n1)CCCC3)C2=O", "melting point": "184 to 186"}, {"smiles": "Nc1ccc(Oc2ccc3ccc(Oc4ccc(N)c(O)c4)cc3c2)cc1O", "melting point": "201 to 210"}, {"smiles": "COC(=O)CNC(=O)c1cccc(NC(=O)CCl)c1", "melting point": "122 to 124"}, {"smiles": "CS(=O)(=O)c1c(Cl)nc(Cl)nc1Cl", "melting point": "146 to 147"}, {"smiles": "Clc1ccc(-c2nc(-n3cccn3)oc2CCC2=NCCO2)cc1", "melting point": "79 to 80"}, {"smiles": "COc1ccc(CSC2CNC(=O)C2)cc1", "note": "(configuration not stated)", "melting point": "95 to 96"}, {"smiles": "CC(=O)OC1CSC(Oc2cncc(-c3ccc(C#N)c(C)c3)c2)C(OC(C)=O)C1OC(C)=O", "note": "(configuration not stated)", "melting point": "74 to 80"}, {"smiles": "CNC(=S)C1(c2ccc(C)cn2)CCCS1", "note": "(configuration not stated)", "melting point": 134}, {"smiles": "C=Cc1ccc(-c2nc(C)c3c(n2)sc2c(OCC)nc(N4CCNCC4)nc23)cc1", "melting point": "165 to 166"}, {"smiles": "CCCCCCC=CCC1CC(=O)N(c2cc(Cc3n[nH]c(=O)c4ccccc34)ccc2F)C1=O", "note": "(configuration not stated)", "melting point": "146 to 149"}, {"smiles": "Cc1cc2c(c(C)c1N)C(c1ccc(C(C)C)cc1)C(C)(C)O2", "note": "(configuration not stated)", "melting point": "98 to 100"}, {"smiles": "COc1cc(Nc2c(C#N)cnc3cc(-c4cc5ccccc5s4)ccc23)c(Cl)cc1Cl", "melting point": "269 to 270"}, {"smiles": "O=C(C#Cc1ccc(C(F)(F)F)cc1Cl)Nc1ccc2nc(N3CCCCC3)ccc2c1", "melting point": "176 to 179"}, {"smiles": "CC(C)c1cc2ncnn2nc1SCCCCl", "melting point": "82 to 83"}, {"smiles": "Cc1ccc(S(=O)(=O)N(c2ccc([N+](=O)[O-])cc2Cl)C(C)C)cc1", "melting point": "154 to 157"}, {"smiles": "Cc1c(C(C)(C)C)cc(C(C)C)c(-c2c(C(C)C)cc(C(C)(C)C)c(C)c2O)c1O", "melting point": "105 to 108"}, {"smiles": "O=C(O)c1c(-c2cnccn2)ssc1=S", "melting point": 225}, {"smiles": "CCOC(=O)c1cccc(Nc2ncnc3[nH]cc(C(=O)c4ccccc4)c23)c1", "melting point": "256 to 258"}, {"smiles": "CCc1cc2c(cc1CC)C(=O)C(N=[N+]=[N-])=CC2=O", "melting point": "74 to 76"}, {"smiles": "CN(C)c1cc(-c2c[nH]cn2)ccn1", "melting point": "173 to 174"}, {"smiles": "Cc1cc(=O)n(C)c2c1C(=O)CC(c1ccsc1)C2", "note": "(configuration not stated)", "melting point": "156 to 157"}, {"smiles": "CCOC(=O)Cn1c(=O)c2cc(Cl)ccc2n(Cc2ccc(Br)cc2F)c1=O", "melting point": "145 to 146"}, {"smiles": "CCN1CCC(=O)N(c2ccc(Cl)cc2C)C1=S", "melting point": "133 to 136"}, {"smiles": "FC(F)(F)C1(c2cc(Cl)cc(Cl)c2)CC(c2cnc(Cl)c(Cl)c2)=NO1", "note": "(configuration not stated)", "melting point": "155 to 157"}, {"smiles": "CCC(=O)c1c(C(=O)C(C)C)c2ccc(C(N)=O)cc2n1Cc1ccccc1Cl", "melting point": "145 to 147"}, {"smiles": "COc1ccc(S(=O)(=O)n2c(CCCC(=O)O)cc3nc(Cl)ccc32)c(C)c1", "melting point": "134 to 140"}, {"smiles": "Cc1ccccc1CC(=NC#N)NC(NC(=O)Cc1ccccc1)C(C)(C)C", "note": "(configuration not stated)", "melting point": "182 to 183"}, {"smiles": "CCc1c(C)cccc1C(=O)NC1CN2CCC1CC2", "note": "(racemic)", "melting point": 125}, {"smiles": "CNc1c(N)cnn1C", "melting point": "185 to 188"}, {"smiles": "CCc1ccc2oc3cc(C#N)cnc3c(=O)c2c1", "melting point": "183 to 185"}, {"smiles": "CCCN(CCCNc1c(Cl)cn[nH]c1=O)CCOc1cccc2c1OCCO2", "melting point": "87 to 89"}, {"smiles": "COCCOc1ccc(CCC2(O)CN3CCC2CC3)cc1", "note": "(configuration not stated)", "melting point": "116 to 117"}, {"smiles": "COC1(c2cc(F)cc(S(=O)(=O)c3ccc(/C(C)=N/O)cc3)c2)CCOCC1", "melting point": "180 to 181"}, {"smiles": "CC(=O)CC(C)c1ccc(-c2ccccc2)c(F)c1", "note": "(configuration not stated)", "melting point": 85}, {"smiles": "O=C(O)c1ccc(S(=O)(=O)Oc2ccc(-c3ccc(-c4c(Cc5ccccc5)oc5ccccc45)cc3)cc2[N+](=O)[O-])cc1O", "melting point": 75}, {"smiles": "CC1(C)CCCC[C@H]1[C@H](O)c1ccc(F)cc1", "melting point": "105 to 108"}, {"smiles": "CS(=O)(=O)Nc1ccc(NC(=O)c2c[nH]c(=S)n2C2CCc3c(F)cc(F)cc3C2)cc1", "note": "(configuration not stated)", "melting point": "225 to 230"}, {"smiles": "CCOC(=O)c1cc2cccc(NS(=O)(=O)c3ccccc3OC)c2n1COC", "melting point": "106 to 107"}, {"smiles": "N#Cc1cccn1-c1ccc(CN2C(=O)c3ccccc3C2=O)cc1", "melting point": "167 to 168"}]}]}
